Reference: ChEMBL document CHEMBL1146619, “The design and synthesis of guanosine compounds with in vitro activity against the colon cancer cell line SW480: non-taxane derived mimics of taxol?” (Bioorg Med Chem Lett, 2003)

The compounds below were run on SW480 (assay: In vitro anti-cancer activity against the colon cancer cell line SW480 was determined). Settings: Homo sapiens.
Type: functional, cell-based

IC50 [µM]	SMILES
19.9	COc1ccc(C(Nc2nc(O)c3ncn(C4OC(COC(=O)[C@@H]5OC(C)(C)N(C(C)=O)[C@H]5c5ccccc5)C5OC(C)(C)OC54)c3n2)(c2ccccc2)c2ccccc2)cc1 (stereo not given in full)
222	CC(C)C(=O)Nc1nc(O)c2ncn(C3OC(COC(=O)[C@@H]4OC(C)(C)N(C(=O)c5ccccc5)[C@H]4c4ccccc4)C4OC(C)(C)OC43)c2n1 (stereo not given in full)
0.312	CC(=O)O[C@H]1C(=O)[C@@]2(C)[C@H]([C@H](OC(=O)c3ccccc3)[C@]3(O)C[C@H](OC(=O)[C@H](O)[C@@H](NC(=O)c4ccccc4)c4ccccc4)C(C)=C1C3(C)C)[C@]1(OC(C)=O)CO[C@@H]1C[C@@H]2O [PACLITAXEL]
192	CC(=O)N1[C@@H](c2ccccc2)[C@H](C(=O)OCC2OC(n3cnc4c(O)nc(NC(=O)C(C)C)nc43)C3OC(C)(C)OC23)OC1(C)C (stereo not given in full)
152	COc1ccc(C(Nc2nc(O)c3ncn(C4OC(COC(=O)[C@@H]5OC(C)(C)N(C(=O)c6ccccc6)[C@H]5c5ccccc5)C5OC(C)(C)OC54)c3n2)(c2ccccc2)c2ccccc2)cc1 (stereo not given in full)
